The species named for assay [1] is Oryctolagus cuniculus. As to the kind of experiment: Effect on 35 mM K+-induced contraction on rabbit aorta at a dose of 10E-6 mol/L. The class given is functional.
For assay [2], the species on record is Oryctolagus cuniculus. As to the kind of experiment: Effect on 35 mM K+-induced contraction on rabbit aorta at a dose of 3*10e-6 mol/L. The class given is functional.
Assay [3] deals with Felis catus. As to the kind of experiment: Effect of intraperitoneal infusion on diastolic pressure in Anesthetized cats at a dose of 200 mg/kg at 165 min. Type of assay: functional.
The subject of assay [4] is Felis catus. As to the kind of experiment: Effect of intravenous infusion on respiration frequency in Anesthetized cats at a dose of 0.15 mg/kg at 1 min. The class given is functional.
A further assay is filed under the species Cavia porcellus. As to the kind of experiment: Chronotropic activity on left and right guinea pig artia (beats/min), at 90 min. The class given is functional.
In assay [5] the test system is Felis catus. As to the kind of experiment: Effect of intravenous infusion on respiration frequency in Anesthetized cats at a dose of 0 mg/kg at 0 min. Type of assay: functional.
Assay [6] relates to Felis catus. As to the kind of experiment: Effect of intraperitoneal infusion of compound on cardiac frequency in Anesthetized cats at a dose of 200 mg/kg at 0 min. The class given is functional, Heart.
Assay [7] relates to Felis catus. As to the kind of experiment: Effect of intravenous infusion on diastolic pressure in Anesthetized cats at a dose of 3.0 mg/kg at 20 min. The class given is functional.
Assay [8] deals with Felis catus. As to the kind of experiment: Effect of intraperitoneal infusion on systolic pressure in Anesthetized cats at a dose of 200 mg/kg at 0 min. The class given is functional.

Results on one compound are retold here after ChEMBL document CHEMBL1123971, “Synthesis, platelet aggregation inhibitory activity, and in vivo antithrombotic activity of new 1,4-dihydropyridines” (J Med Chem, 1988).

A word on the Inhibition: it is how much of the control response was suppressed. Low readings indicate a weak effect, high ones a strong effect. For the compound `CCO/C(O)=C1\C(C)=NC(C)=C(C(=O)OCCN2C(=O)c3ccccc3S2(=O)=O)C1C` (stereo not given), the results for the Inhibition in the assay listed under Oryctolagus cuniculus [1] and in the assay listed under Oryctolagus cuniculus [2] were 48.13% and 71.3%, respectively. Besides, the Arterial pressure in the assay with Felis catus [3] was determined as 80 mmHg; in the assay on Felis catus [7], 160 mmHg; in the assay on Felis catus [8] it was 130 mmHg. Also, the Respiratory frequency in the assay on Felis catus [4] and in the assay on Felis catus [5] was 18 r.p.m each time. In the assay listed under Cavia porcellus, this compound yielded a Beats/min of 133. This compound had a Control in the assay listed under Cavia porcellus of 97.1%. In addition, the Cardiac frequency in the assay with Felis catus [6] amounted to 260 beats min-1.
